Assay: in vitro
Conditions: human, hela cells, % viability

Row | SMILES | viability at 28.5 h, 10 µM
1 | O=C(O)[C@@H]1CSC(c2ccc(C(F)(F)F)cc2)N1 (stereo partly shown) [CBK286921] | 87.7%
2 | O=C(O)CCc1nnc(S)n1Cc1ccccc1 [CBK286926] | 93.8%
3 | Cc1ccc(C2SCC(C(=O)O)N2C(=O)c2cccc(Cl)c2)cc1 (stereo not shown) [CBK286931] | 93.3%
4 | O=C(O)c1cccn1-c1cc(Cl)cc(Cl)c1 [CBK286932] | 98.8%
5 | O=C1CC(/C=C/c2ccccc2)Cc2[nH]c(=O)c(C(=O)O)cc21 (stereo not shown) [CBK286933] | 92.9%
6 | CSc1ccc([C@H]2[C@H](C(=O)O)CC(=O)N2Cc2ccccc2)cc1 [CBK286934] | 91.7%
7 | Cc1ccc(S(=O)(=O)N2CCN(C(=O)C3CCCCC3C(=O)O)CC2)cc1C (stereo not shown) [CBK286936] | 97%
8 | O=C(O)C1C2C=CC3(CN(C/C=C/c4ccccc4)C(=O)C13)O2 (stereo not shown) [CBK286946] | 119%
9 | O=C(O)CCC(=O)Nc1nc(-c2ccccc2)cs1 [CBK286947] | 109%
10 | Cc1nn(Cc2cccc(C(=O)O)c2)c(C)c1Br [CBK286950] | 100%
11 | CCS(=O)(=O)c1ccc2cc(C(=O)O)[nH]c2c1 [CBK286951] | 101%
12 | O=C(O)CN1C(=O)C2CCC(c3ccccc3)CC2C1=O (stereo not shown) [CBK286952] | 95.7%
13 | CC1(C(=O)O)CCC(C(=O)Nc2ccc(F)cc2)C1(C)C (stereo not shown) [CBK286953] | 98.8%
14 | COc1ccc2nc(C)c(CCC(=O)O)c(O)c2c1 [CBK286955] | 98.8%
15 | O=C(O)CCC(=O)Nc1ccc(Oc2ccccc2)cc1 [CBK286957] | 88.9%
16 | Cc1c(C(=O)O)c(-c2ccc(Cl)cc2)cn1CCO [CBK286959] | 87%
17 | CC1CC(Nc2ccccc2)c2ccccc2N1C(=O)CCCC(=O)O (stereo not shown) [CBK286960] | 89.3%
18 | O=C(O)CCc1nc2ccccc2n1C1CCCCC1 [CBK286961] | 87.5%

Row | SMILES | viability at 28.5 h, 10 µM
19 | Cc1ccc(S(=O)(=O)N2CCSC2C(=O)O)cc1 (stereo not shown) [CBK286964] | 86.8%
20 | Cc1nc(=O)c(-c2ccccc2)c(C)n1-c1cccc(C(=O)O)c1 [CBK286965] | 94.3%
21 | O=C(O)c1cccc(N2N=C(c3ccccc3)CC2=O)c1 [CBK286966] | 96.5%
22 | O=C(O)C1C2CCC(C2)C1C(=O)NCCCCc1ccccc1 (stereo not shown) [CBK286967] | 91.1%
23 | Cc1cc(C)nc(NC2=NC(=O)CC(C(=O)O)N2c2ccc(Cl)cc2Cl)n1 (stereo not shown) [CBK286968] | 94.5%
24 | COc1ccccc1C(CC(=O)O)c1ccc2c(c1)OCO2 (stereo not shown) [CBK286971] | 91.2%
25 | O=C(O)c1cc(NC(=O)C2CCCCC2)cc(C(=O)O)c1 [CBK286972] | 103%
26 | COc1ccc(CC(CC(=O)O)C(=O)Nc2ccc(OC)cc2)cc1 (stereo not shown) [CBK286975] | 87.9%
27 | Cn1c(CNc2ccccc2C(=O)O)c(C#N)c2ccccc21 [CBK286977] | 88.7%
28 | CCn1cc(C(=O)O)c(=O)c2cc(F)c(N3CCN(C(=O)c4ccc(C)cc4)CC3)cc21 [CBK286986] | 99.6%
29 | O=C(O)C1C2C=CC3(CN(c4ccccc4)C(=O)C13)O2 (stereo not shown) [CBK286992] | 87.4%
30 | Cc1ccc(C(=O)c2cccc(N3C(=O)c4ccc(C(=O)O)cc4C3=O)c2)cc1C [CBK286994] | 110%
31 | CC(NC(=O)/C=C\C(=O)O)c1ccc2c(c1)OCO2 (stereo not shown) [CBK286996] | 93.3%
32 | O=C(O)C1CC(=O)N(c2ccc(Br)cc2)C1 (stereo not shown) [CBK286998] | 87.7%
33 | NC(CC(=O)O)c1ccc(OCc2ccccc2)cc1 (stereo not shown) [CBK286999] | 80.9%
34 | O=C(O)CNC1=NC2(CCCCC2)Cc2ccccc21 [CBK287001] | 78.2%
35 | Cc1ccc2nc(NCC(=O)O)nc(-c3ccccc3)c2c1 [CBK287002] | 84.4%
36 | Cc1cccc(-n2nnnc2SC(C)C(=O)O)c1 (stereo not shown) [CBK287003] | 90.1%

Same assay, conditions: human, hela cells, % viability, bulk resorufin, single well

Row | SMILES | viability at 28.5 h, 10 µM
37 | CC(C)=C1C2CCC1C(C(=O)N1CCC3(CC1)OCCO3)C2C(=O)O (stereo not shown) [CBK286937] | 92.7%

Source: PMC12040169 (PLOS Biology, 2025)
